Drawing on ChEMBL document CHEMBL1158204, “Metabolites from an Antarctic sponge-associated bacterium, Pseudomonas aeruginosa” (1996), this text covers Activity and MIC for eight molecules.

For orientation: MIC means the smallest concentration in the dilution series that meets the test's criterion for growth inhibition. Read a low MIC as a more susceptible organism.

SMILES strings stand for the structures. Activity calls are given as the source filed them.

One assay relates to Bacillus cereus. The assay can be described thus: Antibacterial activity against Bacillus cereus after 2 days by disk assay. Type of assay: functional.
Details: not given
Turning to `CSCC[C@@H]1NC(=O)[C@@H]2CCCN2C1=O`, the result was inactive.

Consider `CC(C)[C@@H]1NC(=O)[C@@H]2CCCN2C1=O`, for which the outcome was inactive.

For the molecule `CC(C)C[C@@H]1NC(=O)[C@@H]2CCCN2C1=O`, the outcome was inactive.

Take `CC[C@H](C)[C@@H]1NC(=O)[C@@H]2CCCN2C1=O`: the result was inactive.

With `O=C1N[C@@H](Cc2ccc(O)cc2)C(=O)N2CCC[C@@H]12`, the result was inactive.

As for `O=C1N[C@@H](Cc2ccccc2)C(=O)N2CCC[C@@H]12`, the result was inactive.

The assay is the same for the next values; noted with them: 48 h.
Molecule `O=C(O)c1cccc2nc3ccccc3nc12` [PHENAZINE-1-CARBOXYLIC ACID] registered a minimal inhibitory concentration (MIC) of less than 0.5 µg/mL.

In turn, `NC(=O)c1cccc2nc3ccccc3nc12` had an MIC of less than 0.5 µg/mL.

The test system of another assay is Micrococcus luteus. Put plainly: Antibacterial activity against Micrococcus luteus after 2 days by disk assay. In kind it is functional.
Details: not given
Take `CSCC[C@@H]1NC(=O)[C@@H]2CCCN2C1=O`: the outcome was inactive.

On to `CC(C)[C@@H]1NC(=O)[C@@H]2CCCN2C1=O`, for which the outcome was inactive.

As for `CC(C)C[C@@H]1NC(=O)[C@@H]2CCCN2C1=O`, the result was inactive.

As for `CC[C@H](C)[C@@H]1NC(=O)[C@@H]2CCCN2C1=O`, the outcome was inactive.

Consider `O=C1N[C@@H](Cc2ccc(O)cc2)C(=O)N2CCC[C@@H]12`, for which the result was inactive.

For `O=C1N[C@@H](Cc2ccccc2)C(=O)N2CCC[C@@H]12`, the outcome was inactive.

Still in this assay, the particulars now being: 48 h.
For `O=C(O)c1cccc2nc3ccccc3nc12` [PHENAZINE-1-CARBOXYLIC ACID], the MIC was less than 5 µg/mL.

As to `NC(=O)c1cccc2nc3ccccc3nc12`, the MIC is less than 5 µg/mL.

The next assay relates to Staphylococcus aureus. The assay can be described thus: Antibacterial activity against Staphylococcus aureus after 2 days by disk assay.
Details: not given
In kind it is functional.
Turning to `CSCC[C@@H]1NC(=O)[C@@H]2CCCN2C1=O`, the outcome was inactive.

With `CC(C)[C@@H]1NC(=O)[C@@H]2CCCN2C1=O`, the outcome was inactive.

For `CC(C)C[C@@H]1NC(=O)[C@@H]2CCCN2C1=O`, the outcome was inactive.

For `CC[C@H](C)[C@@H]1NC(=O)[C@@H]2CCCN2C1=O`, the result was inactive.

Consider `O=C1N[C@@H](Cc2ccc(O)cc2)C(=O)N2CCC[C@@H]12`, for which the result was inactive.

Take `O=C1N[C@@H](Cc2ccccc2)C(=O)N2CCC[C@@H]12`: the outcome was inactive.

Staying with this assay, now noted: 48 h.
Take `O=C(O)c1cccc2nc3ccccc3nc12` [PHENAZINE-1-CARBOXYLIC ACID]: the minimal inhibitory concentration (MIC) is less than 5 µg/mL.

With `NC(=O)c1cccc2nc3ccccc3nc12`, the MIC is less than 5 µg/mL.
